In US20170105951A1, “COMBINATION THERAPY WITH THIOCOLCHICINE DERIVATIVES” (Abraxis BioScience, LLC, priority 2009, published 2017):

How the values were obtained:
[1] = system: quail embryonic CAM vasculature; test: Shell-less quail embryonic CAM assay, vascular disrupting activity; assay type: in vivo
Experimental: (§1) Methods: The antiangiogenic and VDA effects of ABI-011 were examined in vitro using tubule formation assay with human umbilical vein endothelial cells (HUVEC) and in vivo using the standard chick embryonic chorioallantoic membrane (CAM) assay with 3-day old embryos (n=18). The shell-less quail embryonic CAM assay was used to determine the time course of VDAs (ABI-011 vs. combretastatin A4 Phosphate [CA4P]). Quail embryos (n=36) were exposed to ABI-011 (1 to 16 μg/ml) on day 7 and digital CAM images were acquired over a 60 min period for scoring VDA. Subcutaneous human colon (HT29) tumors were grown in athymic nude mice and treated intravenously (IV) with ABI-011 (20-40 mg/kg; q4d×3, IV) or CA4P (200 mg/kg; qd×4, IV). The animal weights and tumor measurements were recorded three times weekly and adverse observations recorded.

[2] = system: human colon (HT29) tumors; test: Subcutaneous HT29 colon tumor xenograft, ABI-011 vs CA4P (Example 3); assay type: in vivo, athymic nude mice; conditions: CA4P 200 mg/kg, qd×4, IV
Experimental: as §1

[3] = system: human PC3 prostate cancer xenograft; test: Subcutaneous PC3 prostate tumor xenograft, tumor growth inhibition; assay type: in vivo, athymic nude mice; conditions: Avastin 8 mg/kg 2x/wk
Experimental: (§2) Methods: Subcutaneous human breast (MDA-MB-231), colon (HT29) and prostate (PC3) tumors were grown in athymic nude mice and treated intravenously (IV) with sub-optimal dose of ABI-011 alone at 20 mg/kg (q4d×3, q4d×2, or qd×1) and in combination with nab-paclitaxel (5 mg/kg, q4d×3, IV) or bevacizumab (8 mg/kg, 2×wkly, IP). The effect of dose, schedule, and sequence of combination regimen on therapeutic efficacy was tested. ABI-011 was administered 24 h before, concurrent with, or 24 h after nab-paclitaxel or bevacizumab treatment.

[4] = Body weight change in PC3 tumor-bearing mice; assay type: in vivo, athymic nude mice; conditions: Avastin 8 mg/kg 2x/wk
Experimental: as §2

[5] = system: human HT29 colon cancer xenograft; test: Subcutaneous HT29 colon tumor xenograft, antitumor activity (Example 1); assay type: in vivo, athymic nude mice; conditions: Avastin 8 mg/kg 2x/wk
Experimental: as §2

| Molecule | Vascular disrupting activity (VDA), in words ([1]; quail CAM, at concentrations much higher than the effective dose of ABI-011) | IC50, vascular disrupting activity (VDA) ([1]; quail embryonic CAM, scored over 60 min) [µg/mL] | LD50, embryonic mortalities ([1]; quail embryos) [µg/mL] | Antitumor efficacy, in words [2] | TGI, tumor growth inhibition on day 23 [3] [%] | BWC, percent body weight change on day 21 [4] [%] | TGI, tumor growth inhibition on day 23 [5] [%] | Three-TDT [5] [days] |
| --- | --- | --- | --- | --- | --- | --- | --- | --- |
| COc1ccc(/C=C\c2cc(OC)c(OC)c(OC)c2)cc1OP(=O)(O)O [CA4P, combretastatin A4 Phosphate] | only modest VDA | 13.1 | 12.8 | ineffective |  |  |  |  |
| Avastin: anti-VEGF antibody (bevacizumab) |  |  |  |  | 52.9 | −24.6 | 75.3 | 19.3 |
